Experimental data from patent US7696201B2, “Modulators of muscarinic receptors” (Vertex Pharmaceuticals Incorporated, priority 2006, dated 2010).

Legend:
Type in all cases: cell-based
M1 muscarinic receptor = target: T1, M1 muscarinic receptor (Homo sapiens, UniProt P11229); assay: Functional mobilization of intracellular calcium (FLIPR), M1-CHO cells; conditions: for Emax: 100% efficacy is the maximum response obtained with the Carbachol control; for M1 Activity: CHO cells expressing M1, calcium mobilization
T1 construct: expressed in transfected cells; host or cells: CHO (M1-CHO)
T1 sequence (P11229 1-460): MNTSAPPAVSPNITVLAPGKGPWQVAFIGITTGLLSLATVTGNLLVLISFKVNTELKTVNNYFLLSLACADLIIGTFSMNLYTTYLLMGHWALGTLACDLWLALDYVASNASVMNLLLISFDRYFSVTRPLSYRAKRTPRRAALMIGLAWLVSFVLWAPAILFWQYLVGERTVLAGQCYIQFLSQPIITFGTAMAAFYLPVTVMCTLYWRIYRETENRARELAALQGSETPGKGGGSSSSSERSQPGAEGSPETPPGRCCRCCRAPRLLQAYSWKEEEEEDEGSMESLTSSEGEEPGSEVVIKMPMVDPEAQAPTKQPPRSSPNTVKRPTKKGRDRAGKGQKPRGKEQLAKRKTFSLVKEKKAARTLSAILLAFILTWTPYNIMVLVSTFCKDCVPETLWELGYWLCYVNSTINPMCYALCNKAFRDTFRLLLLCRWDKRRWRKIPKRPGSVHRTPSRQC
Experimental: (§1) Functional Mobilization of Intracellular Calcium to Determine Muscarinic Receptor Activity:
(§2) CHO cells expressing muscarinic receptors (M1 to M5) are grown as monolayers in tissue culture flasks at 37° C. in a humidified atmosphere containing 5% CO2 and passaged every 3-5 days. The growth media is Dulbecco's modified eagles medium (DMEM, Gibco Cat# 12430-054), containing 25 mM Hepes and supplemented with Fetal Bovine Serum (Hyclone, cat# SH30071.03), 0.1 mM of MEM non-essential amino acids (GIBCO, Cat# 11140-050), 1 mM MEM Sodium Pyruvate (GIBCO Cat# 11360-070) and 100 units/ml of Penicillin G and 100 μg/ml of Streptomycin (GIBCO Cat# 15140-122). The recombinant muscarinic receptor cell lines are grown under antibiotic pressure with media containing 25 μg/ml zeocin and 500 μg/ml G418 (M1-CHO), 4 μg/ml puromycin, 50 μg/ml zeocin and 2.5 μg/ml blasticidin (M2 and M4-CHO) or 50 μg/ml zeocin and 4 μg/ml puromycin (M3 and M5-CHO).
(§3) Cells are harvested at 80-90% confluence using Versene (GIBCO Cat# 15040-066), collected by centrifugation and seeded 18-24 hours prior to running the calcium assay at a density of 5,000-10,000 cells/well in […], clear-bottomed 384-well plates (BD Biocoat, poly-D-lysine, Cat#356663). The day of the experiment, the cells are washed with a plate washer (Bioteck Instruments, ELX 405) using Bath 1 buffer (140-mM NaCl, 4.5-mM KCl, 2-mM CaCl2, 1-mM MgCl2, 10-mM Hepes-Na, 10-mM Glucose, pH 7.4, with NaOH) containing 1 mM Probenecid. Next, the calcium dye Fluo-3 (25 μl/well of Fluo-3 AM at 4 μM, Molecular Probes F-1241, in Bath 1 buffer containing 1 mM Probenecid) is added to the 25 μl of Bath 1 remaining in each well after the plate wash and the dye is loaded at 37° C. in the tissue culture incubator for 60-90 min. The fluorescent dye is removed using the plate washer with Bath 1 containing 1 mM Probenecid, leaving 25 μl/well of this solution after the wash. Alternatively, cells can be loaded with the calcium indicator from Molecular Devices (Calcium 3 Assay Reagents, Cat # R7181) adding 5 μl of a 5× solution dye in Bath 1 containing 1 mM Probenecid (10 ml per dye flask cat# R7182 to generate a solution 20×) to 20 μl of the same buffer. After loading for 60 min, the experiment can be run without having to remove the dye.
(§4) Compounds are prepared at a 2× fold concentration in a 96-well plate (round bottom, Costar Corning cat# 3656), by reconstituting the pre-spotted compounds in bath 1 containing 1 mM probenecid. The final concentration DMSO is 0.5%, and the amount of DMSO is normalized across the assay plate. To determine an agonist action of the compounds on muscarinic receptors, the reconstituted compounds are added (25 μl compound/well) to the cell assay plate (containing 25 μl/well) using the multi-channel robotic system of the FLIPR 3 Instrument (Molecular Devices, Sunnyvale, Calif.). To determine a functional inhibitory action of the compounds on muscarinic receptors, the reconstituted compounds are added (25 μl compound/well) to the assay plate and pre-incubated for 15 min prior to adding 25 μl of Carbachol at 3× the EC80 for each muscarinic subtype. Alternatively, the compounds can be co-applied simultaneously with the agonist. In both assay modes, the fluorescence is recorded for 60 sec (excitation wavelength is […] and emission wavelength 540 nm) using the FLIPR 3 instrument.
(§5) The potency, efficacy and selectivity of the muscarinic compounds were evaluated by screening the compound activity across the whole family (M1 to M5 cells). Compounds were also screened for activity on other proteins such as other GPCRs and ion channels to determine selectivity on M4 receptors.
(§6) Examples of activities and efficacies of the muscarinic compounds of formulae (I, Ia, Ib, Ic, and Id) on modulating M1 and M4 receptors are shown below in Table 3. […]

M4 muscarinic receptor = target: T2, M4 muscarinic receptor (Homo sapiens, UniProt P08173); assay: Functional mobilization of intracellular calcium (FLIPR), M4-CHO cells; conditions: for Emax: 100% efficacy is the maximum response obtained with the Carbachol control; for M4 Activity: CHO cells expressing M4, calcium mobilization
T2 construct: expressed in transfected cells; host or cells: CHO (M4-CHO)
T2 sequence (P08173 1-479): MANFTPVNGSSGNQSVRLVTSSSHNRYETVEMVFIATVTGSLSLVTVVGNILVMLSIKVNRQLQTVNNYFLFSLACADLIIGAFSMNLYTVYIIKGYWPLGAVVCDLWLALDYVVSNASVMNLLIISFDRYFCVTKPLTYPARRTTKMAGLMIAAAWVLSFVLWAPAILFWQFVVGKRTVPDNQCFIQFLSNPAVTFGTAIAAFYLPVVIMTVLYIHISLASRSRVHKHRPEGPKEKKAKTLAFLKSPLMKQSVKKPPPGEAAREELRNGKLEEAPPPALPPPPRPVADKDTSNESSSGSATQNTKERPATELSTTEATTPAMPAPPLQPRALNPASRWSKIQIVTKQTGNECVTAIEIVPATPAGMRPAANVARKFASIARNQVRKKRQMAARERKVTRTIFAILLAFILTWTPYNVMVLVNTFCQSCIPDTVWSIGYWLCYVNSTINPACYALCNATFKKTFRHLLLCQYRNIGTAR
Experimental: as §1, §2, §3, §4, §5, §6

M2 muscarinic receptor = target: T3, M2 muscarinic receptor (Homo sapiens, UniProt P08172); assay: Functional mobilization of intracellular calcium (FLIPR), M2-CHO cells; conditions: for Emax: 100% efficacy is the maximum response obtained with the Carbachol control; for M2 Activity: CHO cells expressing M2, calcium mobilization
T3 construct: expressed in transfected cells; host or cells: CHO (M2-CHO)
T3 sequence (P08172 1-466): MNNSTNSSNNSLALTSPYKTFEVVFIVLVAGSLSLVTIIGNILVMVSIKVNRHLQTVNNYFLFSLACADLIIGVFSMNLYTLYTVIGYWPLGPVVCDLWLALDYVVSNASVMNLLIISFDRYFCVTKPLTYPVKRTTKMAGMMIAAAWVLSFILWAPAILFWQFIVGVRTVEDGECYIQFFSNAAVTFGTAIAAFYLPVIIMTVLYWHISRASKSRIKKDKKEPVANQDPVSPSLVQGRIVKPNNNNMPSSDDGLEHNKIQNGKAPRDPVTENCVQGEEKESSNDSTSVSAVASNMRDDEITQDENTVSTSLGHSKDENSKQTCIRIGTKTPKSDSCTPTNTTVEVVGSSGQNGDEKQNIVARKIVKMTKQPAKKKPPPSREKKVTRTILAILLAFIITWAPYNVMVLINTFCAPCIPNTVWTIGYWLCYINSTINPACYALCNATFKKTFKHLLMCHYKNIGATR
Experimental: as §1, §2, §3, §4, §5, §6

M3 muscarinic receptor = target: T4, M3 muscarinic receptor (Homo sapiens, UniProt P20309); assay: Functional mobilization of intracellular calcium (FLIPR), M3-CHO cells; conditions: for Emax: 100% efficacy is the maximum response obtained with the Carbachol control; for M3 Activity: CHO cells expressing M3, calcium mobilization
T4 construct: expressed in transfected cells; host or cells: CHO (M3-CHO)
T4 sequence (P20309 whole entry): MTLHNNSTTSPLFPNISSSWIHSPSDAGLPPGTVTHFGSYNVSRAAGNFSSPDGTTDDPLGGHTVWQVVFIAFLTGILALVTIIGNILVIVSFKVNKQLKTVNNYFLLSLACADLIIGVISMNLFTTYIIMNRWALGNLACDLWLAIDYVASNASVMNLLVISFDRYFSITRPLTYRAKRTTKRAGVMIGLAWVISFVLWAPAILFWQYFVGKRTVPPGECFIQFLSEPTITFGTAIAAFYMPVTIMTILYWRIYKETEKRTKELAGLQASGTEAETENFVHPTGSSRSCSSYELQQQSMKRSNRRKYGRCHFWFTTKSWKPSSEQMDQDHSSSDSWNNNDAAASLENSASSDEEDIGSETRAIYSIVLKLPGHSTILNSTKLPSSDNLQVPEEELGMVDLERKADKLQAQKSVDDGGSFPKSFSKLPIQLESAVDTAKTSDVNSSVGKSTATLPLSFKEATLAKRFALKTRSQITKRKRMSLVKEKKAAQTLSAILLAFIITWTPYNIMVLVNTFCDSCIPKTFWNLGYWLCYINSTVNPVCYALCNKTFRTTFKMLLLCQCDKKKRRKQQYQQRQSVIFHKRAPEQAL
Experimental: as §1, §2, §3, §4, §5, §6

Compound | Emax (M1 muscarinic receptor) [%] | M1 Activity (M1 muscarinic receptor) | Emax (M4 muscarinic receptor) [%] | M4 Activity (M4 muscarinic receptor) | Emax (M2 muscarinic receptor) [%] | M2 Activity (M2 muscarinic receptor) | Emax (M3 muscarinic receptor) [%] | M3 Activity (M3 muscarinic receptor)
O=C1CCC(N2CCC3(CC2)OC(=O)Nc2ccccc23)CC1 [Compound 64, 1′-(4-oxocyclohexyl)spiro[benzo[d][1,3]oxazine-4,4′-piperidin]-2(1H)-one] | 25 to 100 | ++ (activity was measured to be from 2.0 μM to 5.0 μM) | 25 to 100 | ++ (activity was measured to be from 2.0 μM to 5.0 μM) | 25 to 100 | + (activity was measured to be greater than 5.0 μM) | < 25 | + (activity was measured to be greater than 5.0 μM)
CCON=C1CCC(N2CCC3(CC2)OC(=O)Nc2ccccc23)CC1 (stereo not shown) [Compound 3, 1′-(4-(ethoxyimino)cyclohexyl)spiro[benzo[d][1,3]oxazine-4,4′-piperidin]-2(1H)-one] | 25 to 100 | +++ (activity was measured to be less than 2.0 μM) | 25 to 100 | +++ (activity was measured to be less than 2.0 μM) | 25 to 100 | +++ (activity was measured to be less than 2.0 μM) | 25 to 100 | +++ (activity was measured to be less than 2.0 μM)
O=C1Nc2ccccc2C2(CCN(C3CCCCCC3)CC2)O1 [Compound 5, 1′-cycloheptylspiro[benzo[d][1,3]oxazine-4,4′-piperidin]-2(1H)-one] | 25 to 100 | +++ (activity was measured to be less than 2.0 μM) | 25 to 100 | +++ (activity was measured to be less than 2.0 μM) | 25 to 100 | + (activity was measured to be greater than 5.0 μM) | < 25 | + (activity was measured to be greater than 5.0 μM)
O=C1Nc2ccccc2C2(CCN(C3CCNCC3)CC2)O1 [Compound 49, 1′-(piperidin-4-yl)spiro[benzo[d][1,3]oxazine-4,4′-piperidin]-2(1H)-one] | 25 to 100 | + (activity was measured to be greater than 5.0 μM) | < 25 | + (activity was measured to be greater than 5.0 μM) | < 25 | + (activity was measured to be greater than 5.0 μM) | < 25 | + (activity was measured to be greater than 5.0 μM)
CN1C(=O)OC2(CCN(C3CCCCCC3)CC2)c2ccccc21 [Compound 65, 1′-cycloheptyl-1-methylspiro[benzo[d][1,3]oxazine-4,4′-piperidin]-2(1H)-one] | < 25 | + (activity was measured to be greater than 5.0 μM) | 25 to 100 | +++ (activity was measured to be less than 2.0 μM) | < 25 | + (activity was measured to be greater than 5.0 μM) | < 25 | + (activity was measured to be greater than 5.0 μM)
O=C1Nc2ccccc2C2(CCN(CC3CCCCC3)CC2)O1 [Compound 27] | 25 to 100 | +++ (activity was measured to be less than 2.0 μM) | 25 to 100 | +++ (activity was measured to be less than 2.0 μM) | 25 to 100 | ++ (activity was measured to be from 2.0 μM to 5.0 μM) | < 25 | + (activity was measured to be greater than 5.0 μM)
O=C1Nc2ccccc2C2(CCN(C3CC4CCC(C4)C3)CC2)O1 (stereo not shown) [Compound 67, 1′-(bicyclo[3.2.1]octan-3-yl)spiro[benzo[d][1,3]oxazine-4,4′-piperidin]-2(1H)-one] | 25 to 100 | +++ (activity was measured to be less than 2.0 μM) | 25 to 100 | +++ (activity was measured to be less than 2.0 μM) | 25 to 100 | +++ (activity was measured to be less than 2.0 μM) | 25 to 100 | + (activity was measured to be greater than 5.0 μM)
CCOC(=O)N1CCC(CN2CCC3(CC2)OC(=O)Nc2ccccc23)CC1 [Compound 13, ethyl-4-((2-oxo-1,2-dihydrospiro[benzo[d][1,3]oxazine-4,4′-piperidine]-1′-yl)methyl)piperidine-1-carboxylate] | 25 to 100 | +++ (activity was measured to be less than 2.0 μM) | 25 to 100 | +++ (activity was measured to be less than 2.0 μM) | 25 to 100 | +++ (activity was measured to be less than 2.0 μM) | 25 to 100 | +++ (activity was measured to be less than 2.0 μM)
